Test system: anesthetized guinea-pig
Experiment: Cardiovascular effects in the anaesthetized guinea-pig
Type: in vivo
Protocol: Female guinea-pigs were anesthetized with sodium pentobarbital (66 mg/kg i.p.) followed by a continuous i.v. infusion of 6 mg/h of sodium pentobarbital and prepared for measurements of the surface electrocardiogram (ECG), heart rate and mean arterial blood pressure (see De Clerck et al, Fundam. Clin. Pharm.; 2002; 16: 125-140). Compound (−)-17 was dissolved in 20% hydroxypropyl-cyclodextrin with NaOH, HCl and mannitol in pyrogen-free water and administered intravenously (0.5 ml/kg) in increasing doses (0.16, 0.32, 0.64, 1.25, 2.5 and 5 mg/kg) over a period of 5 min at 15-min intervals. Plasma concentrations of Compound (−)-17 were measured at the end of each infusion. Corresponding volumes of vehicle were administered according to the same protocol in a second group of animals.

[1] = guinea pig i.v. 0.16 mg/kg @ 2′
[2] = guinea pig i.v. 0.16 mg/kg @ 5′
[3] = guinea pig i.v. 0.16 mg/kg @ 15′
[4] = guinea pig i.v. 0.32 mg/kg @ 2′
[5] = guinea pig i.v. 0.32 mg/kg @ 5′
[6] = guinea pig i.v. 0.32 mg/kg @ 15′
[7] = guinea pig i.v. 0.64 mg/kg @ 2′
[8] = guinea pig i.v. 0.64 mg/kg @ 5′
[9] = guinea pig i.v. 0.64 mg/kg @ 15′
[10] = guinea pig i.v. 1.25 mg/kg @ 2′
[11] = guinea pig i.v. 1.25 mg/kg @ 5′
[12] = guinea pig i.v. 1.25 mg/kg @ 15′
[13] = guinea pig i.v. 2.5 mg/kg @ 15′

Structure (SMILES): COc1cc(N)c(Cl)cc1C(=O)NC1CCN(CCCOc2ccc(F)cc2)CC1(F)F (single isomer, unassigned) [Compound (−)-17, 4-amino-5-chloro-N-{3,3-difluoro-1-[3-(4-fluorophenoxy)-propyl]-piperidin-4-yl}-2-methoxybenzamide]
- HR, percentage change relative to baseline [1]: −1%
- MBP, percentage change relative to baseline [1]: 4%
- PQ, percentage change relative to baseline [1]: 0%
- QRS, percentage change relative to baseline [1]: −2%
- QT, percentage change relative to baseline [1]: 0%
- QTc B, percentage change relative to baseline [1]: −1%
- HR, percentage change relative to baseline [2]: 0%
- PQ, percentage change relative to baseline [2]: 1%
- QRS, percentage change relative to baseline [2]: −2%
- QT, percentage change relative to baseline [2]: −1%
- QTc B, percentage change relative to baseline [2]: −1%
- HR, percentage change relative to baseline [3]: −2%
- MBP, percentage change relative to baseline [3]: −3%
- PQ, percentage change relative to baseline [3]: 4%
- QRS, percentage change relative to baseline [3]: 0%
- QT, percentage change relative to baseline [3]: 1%
- QTc B, percentage change relative to baseline [3]: 1%
- HR, percentage change relative to baseline [4]: −1%
- MBP, percentage change relative to baseline [4]: 6%
- PQ, percentage change relative to baseline [4]: 2%
- QRS, percentage change relative to baseline [4]: −2%
- QT, percentage change relative to baseline [4]: 0%
- QTc B, percentage change relative to baseline [4]: 1%
- HR, percentage change relative to baseline [5]: −4%
- MBP, percentage change relative to baseline [5]: 2%
- PQ, percentage change relative to baseline [5]: 4%
- QRS, percentage change relative to baseline [5]: 0%
- QT, percentage change relative to baseline [5]: 3%
- QTc B, percentage change relative to baseline [5]: 1%
- HR, percentage change relative to baseline [6]: −4%
- MBP, percentage change relative to baseline [6]: −3%
- PQ, percentage change relative to baseline [6]: 4%
- QRS, percentage change relative to baseline [6]: 0%
- QT, percentage change relative to baseline [6]: 4%
- QTc B, percentage change relative to baseline [6]: 3%
- HR, percentage change relative to baseline [7]: −5%
- MBP, percentage change relative to baseline [7]: 6%
- PQ, percentage change relative to baseline [7]: 5%
- QRS, percentage change relative to baseline [7]: 0%
- QT, percentage change relative to baseline [7]: 7%
- QTc B, percentage change relative to baseline [7]: 4%
- HR, percentage change relative to baseline [8]: −2%
- MBP, percentage change relative to baseline [8]: 13%
- PQ, percentage change relative to baseline [8]: 5%
- QRS, percentage change relative to baseline [8]: −5%
- QT, percentage change relative to baseline [8]: 5%
- QTc B, percentage change relative to baseline [8]: 2%
- HR, percentage change relative to baseline [9]: −5%
- MBP, percentage change relative to baseline [9]: −5%
- PQ, percentage change relative to baseline [9]: 4%
- QRS, percentage change relative to baseline [9]: −3%
- QT, percentage change relative to baseline [9]: 8%
- QTc B, percentage change relative to baseline [9]: 4%
- HR, percentage change relative to baseline [10]: −7%
- MBP, percentage change relative to baseline [10]: 4%
- PQ, percentage change relative to baseline [10]: 5%
- QRS, percentage change relative to baseline [10]: −2%
- QT, percentage change relative to baseline [10]: 8%
- QTc B, percentage change relative to baseline [10]: 4%
- HR, percentage change relative to baseline [11]: −7%
- MBP, percentage change relative to baseline [11]: 15%
- PQ, percentage change relative to baseline [11]: 6%
- QRS, percentage change relative to baseline [11]: 0%
- QT, percentage change relative to baseline [11]: 6%
- QTc B, percentage change relative to baseline [11]: 2%
- HR, percentage change relative to baseline [12]: 0%
- MBP, percentage change relative to baseline [12]: 9%
- PQ, percentage change relative to baseline [12]: 6%
- QRS, percentage change relative to baseline [12]: −3%
- QT, percentage change relative to baseline [12]: 2%
- QTc B, percentage change relative to baseline [12]: 3%
- HR, percentage change relative to baseline (guinea pig i.v. 2.5 mg/kg @ 2′): −5%
- PQ, percentage change relative to baseline (guinea pig i.v. 2.5 mg/kg @ 2′): 7%
- QRS, percentage change relative to baseline (guinea pig i.v. 2.5 mg/kg @ 2′): −3%
- QT, percentage change relative to baseline (guinea pig i.v. 2.5 mg/kg @ 2′): 6%
- QTc B, percentage change relative to baseline (guinea pig i.v. 2.5 mg/kg @ 2′): 4%
- HR, percentage change relative to baseline (guinea pig i.v. 2.5 mg/kg @ 5′): −6%
- MBP, percentage change relative to baseline (guinea pig i.v. 2.5 mg/kg @ 5′): 21%
- PQ, percentage change relative to baseline (guinea pig i.v. 2.5 mg/kg @ 5′): 7%
- QRS, percentage change relative to baseline (guinea pig i.v. 2.5 mg/kg @ 5′): −3%
- QT, percentage change relative to baseline (guinea pig i.v. 2.5 mg/kg @ 5′): 6%
- QTc B, percentage change relative to baseline (guinea pig i.v. 2.5 mg/kg @ 5′): 3%
- HR, percentage change relative to baseline [13]: −4%
- MBP, percentage change relative to baseline [13]: 8%
- PQ, percentage change relative to baseline [13]: 8%
- QRS, percentage change relative to baseline [13]: 0%
- QT, percentage change relative to baseline [13]: 6%
- QTc B, percentage change relative to baseline [13]: 5%
- HR, percentage change relative to baseline (guinea pig i.v. 5 mg/kg @ 2′): −3%
- PQ, percentage change relative to baseline (guinea pig i.v. 5 mg/kg @ 2′): 6%
- QRS, percentage change relative to baseline (guinea pig i.v. 5 mg/kg @ 2′): −2%
- QT, percentage change relative to baseline (guinea pig i.v. 5 mg/kg @ 2′): 7%
- QTc B, percentage change relative to baseline (guinea pig i.v. 5 mg/kg @ 2′): 5%
- HR, percentage change relative to baseline (guinea pig i.v. 5 mg/kg @ 5′): −3%
- PQ, percentage change relative to baseline (guinea pig i.v. 5 mg/kg @ 5′): 6%
- QRS, percentage change relative to baseline (guinea pig i.v. 5 mg/kg @ 5′): 0%
- QT, percentage change relative to baseline (guinea pig i.v. 5 mg/kg @ 5′): 3%
- QTc B, percentage change relative to baseline (guinea pig i.v. 5 mg/kg @ 5′): 2%
- effect on heart rate, duration of PQ, QRS, QT and QTcB intervals, ECG morphology (guinea pig, 0.16 up to 5 mg/kg i.v., relative to vehicle): no relevant effect
- mean arterial blood pressure (guinea pig, from 2.5 mg/kg i.v. onwards): started to increase

From US9139523B2, “5-HT2B receptor antagonists” (Janssen Pharmaceutica, NV, priority 2010, dated 2015)
